Assay [1] relates to HepG2. The assay can be described thus: Cytotoxicity against Homo sapiens (human) HepG2 cells assessed as cell viability at 3.125 ug/ml after 48 hr by MTT assay relative to control. Type of assay: functional. The note with it: HepG2, 48 h, read-out: Activity.
For assay [2], the system named is MCF7. Kind of assay: Cytotoxicity against Homo sapiens (human) MCF7 cells assessed as cell viability at 3.125 ug/ml after 48 hr by MTT assay relative to control. Type of assay: functional. The note with it: MCF7, 48 h, read-out: Activity. (In general: Formazan colour is commonly taken as a measure of viable cells.)
Assay [3] concerns MCF7. Kind of assay: Cytotoxicity against Homo sapiens (human) MCF7 cells assessed as cell viability at 1.56 ug/ml after 48 hr by MTT assay relative to control. Type of assay: functional. The note with it: MCF7, 48 h, read-out: Activity.
Assay [4] can be described thus: Cytotoxicity against Homo sapiens (human) HCT cells assessed as cell viability at 3.125 ug/ml after 48 hr by MTT assay relative to control. To be noted: read-out: Activity. Type of assay: functional.
For assay [5], the system named is HepG2. The assay can be described thus: Cytotoxicity against Homo sapiens (human) HepG2 cells assessed as cell viability at 25 ug/ml after 48 hr by MTT assay relative to control. The note with it: HepG2, 48 h, read-out: Activity. Type of assay: functional.
In assay [6] the test system is HepG2. The assay can be described thus: Cytotoxicity against Homo sapiens (human) HepG2 cells assessed as cell viability at 12.5 ug/ml after 48 hr by MTT assay relative to control. Type of assay: functional. The note with it: HepG2, 48 h, read-out: Activity.
Assay [7] can be described thus: Cytotoxicity against Homo sapiens (human) HCT cells assessed as cell viability at 12.5 ug/ml after 48 hr by MTT assay relative to control. It counts as functional. The note with it: read-out: Activity.
The test system of assay [8] is HepG2. The assay can be described thus: Cytotoxicity against Homo sapiens (human) HepG2 cells assessed as cell viability at 1.56 ug/ml after 48 hr by MTT assay relative to control. Type of assay: functional. To be noted: HepG2, 48 h, read-out: Activity.
In assay [9] the test system is MCF7. Kind of assay: Cytotoxicity against Homo sapiens (human) MCF7 cells after 48 hr by MTT assay. It counts as functional, cell-based. To be noted: MCF7, 48 h.
Assay [10] relates to HepG2. Kind of assay: Cytotoxicity against Homo sapiens (human) HepG2 cells after 48 hr by MTT assay. It counts as functional, cell-based.
A short description of assay [11]: Cytotoxicity against Homo sapiens (human) HCT cells assessed as cell viability at 50 ug/ml after 48 hr by MTT assay relative to control. Type of assay: functional. The note with it: read-out: Activity.
Assay [12] deals with MCF7. Kind of assay: Cytotoxicity against Homo sapiens (human) MCF7 cells assessed as cell viability at 12.5 ug/ml after 48 hr by MTT assay relative to control. Type of assay: functional. The note with it: MCF7, 48 h, read-out: Activity.
For assay [13], the system named is HepG2. The assay can be described thus: Cytotoxicity against Homo sapiens (human) HepG2 cells assessed as cell viability at 50 ug/ml after 48 hr by MTT assay relative to control. To be noted: HepG2, 48 h, read-out: Activity. Type of assay: functional.
A short description of assay [14]: Cytotoxicity against Homo sapiens (human) HCT cells assessed as cell viability at 25 ug/ml after 48 hr by MTT assay relative to control. Type of assay: functional. The note with it: read-out: Activity.
Assay [15] can be described thus: Cytotoxicity against Homo sapiens (human) HCT cells assessed as cell viability at 6.25 ug/ml after 48 hr by MTT assay relative to control. It counts as functional. To be noted: read-out: Activity.
For assay [16], the system named is MCF7. The assay can be described thus: Cytotoxicity against Homo sapiens (human) MCF7 cells assessed as cell viability at 6.25 ug/ml after 48 hr by MTT assay relative to control. It counts as functional. The note with it: MCF7, 48 h, read-out: Activity.
A short description of assay [17]: Cytotoxicity against Homo sapiens (human) HCT cells after 48 hr by MTT assay. It counts as functional, cell-based.
Assay [18] has as its system MCF7. Kind of assay: Cytotoxicity against Homo sapiens (human) MCF7 cells assessed as cell viability at 25 ug/ml after 48 hr by MTT assay relative to control. Type of assay: functional. To be noted: MCF7, 48 h, read-out: Activity.
Assay [19] concerns HepG2. The assay can be described thus: Cytotoxicity against Homo sapiens (human) HepG2 cells assessed as cell viability at 6.25 ug/ml after 48 hr by MTT assay relative to control. Type of assay: functional. The note with it: HepG2, 48 h, read-out: Activity.
Assay [20] is described as follows: Cytotoxicity against Homo sapiens (human) HCT cells assessed as cell viability at 1.56 ug/ml after 48 hr by MTT assay relative to control. Type of assay: functional. To be noted: read-out: Activity.
In assay [21] the test system is MCF7. Kind of assay: Cytotoxicity against Homo sapiens (human) MCF7 cells assessed as cell viability at 50 ug/ml after 48 hr by MTT assay relative to control. To be noted: MCF7, 48 h, read-out: Activity. Type of assay: functional.
The mark [22] stands for this setting: Homo sapiens, HepG2, 48 h, read-out: IC50.

≈ marks a conversion by molar mass, not a printed value. Where only a bound is given, the exact number is not on record here.

Broadly, the IC50 is the point on the concentration scale where inhibition reaches its midpoint. Consider `N#CC1=C(N)Oc2c(ccc3cccnc23)C1c1ccc(Cl)cc1` (stereo unspecified), for which the viability at 3.125 µg/mL was 68.5% in assay [1], 91.6% in [2] and 92.6% in assay [4]. For the same compound, the values for the viability at 1.56 µg/mL in assay [3], in assay [8] and in assay [20] were 100%, 79.6% and 100%, respectively. Besides, the values for the viability at 25 µg/mL in assay [5], in assay [14] and in [18] were 57.2%, 48.2% and 49.8%, respectively. Further, the results for the viability at 12.5 µg/mL in [6], in [7] and in assay [12] were 63.5%, 67.4% and 72.9%, respectively. For the same compound, the values for the IC50 in assay [9], in assay [10] (setting [22]) and in assay [17] were 24.9 µg/mL (≈ 74.6 µM), above 50 µg/mL and 24 µg/mL (≈ 71.9 µM), respectively. The viability at 50 µg/mL is 27.4% in assay [11], 52.8% in [13] and 26.8% in assay [21]. For the same compound, the values for the viability at 6.25 µg/mL in assay [15], in assay [16] and in [19] were 76.8%, 82.5% and 68.2%, respectively.
In the case of `N#CC1=C(N)Oc2c(ccc3cccnc23)C1c1ccc(Br)cc1` (stereo unspecified), the values for the viability at 3.125 µg/mL in assay [1], in [2] and in assay [4] were 100%, 83.9% and 100%, respectively. For the same compound, the viability at 1.56 µg/mL in assay [3] stood at 94.8%; in assay [8], 100%; in [20] it was 100%. Also, the viability at 25 µg/mL in assay [5] is 96.3%; in assay [14], 78.4%; in assay [18] it was 58.9%. Further, the viability at 12.5 µg/mL in assay [6] came out at 98.3%; in assay [7], 91.2%; in [12] it was 70%. For the same compound, the IC50 was 34.8 µg/mL (≈ 92 µM) in [9], “Not Active” in [10] (hepg2) and 43.7 µg/mL (≈ 116 µM) in [17]. In addition, the viability at 50 µg/mL in assay [11] worked out at 42.4%; in assay [13], 91.8%; in assay [21], 39.1%. Besides, the viability at 6.25 µg/mL came out at 97.8% in [15], 75.7% in assay [16] and 100% in assay [19].
In the case of `Cc1ccc2ccc3c(c2n1)OC(N)=C(C#N)C3c1ccc(Cl)cc1` (stereo unspecified), the viability at 3.125 µg/mL in assay [1] stood at 43%; in assay [2], 87%; in assay [4] it was 79%. The results for the viability at 1.56 µg/mL in assay [3], in assay [8] and in assay [20] were 100%, 51.9% and 94%, respectively. Also, the viability at 25 µg/mL in assay [5] was 33.7%; in [14] it was 35.8%; in assay [18] it was 58.2%. For the same compound, the viability at 12.5 µg/mL in [6] is 35.6%; in [7] it was 55.6%; in [12], 71.4%. The IC50 was 27.9 µg/mL (≈ 80.2 µM) in assay [9], 1.8 µg/mL (≈ 5.18 µM) in assay [10] (setting [22]) and 15.8 µg/mL (≈ 45.4 µM) in assay [17]. Besides, the viability at 50 µg/mL turned out to be 27.6% in assay [11], 23.1% in [13] and 28% in [21]. The viability at 6.25 µg/mL in assay [15] turned out to be 66.8%; in assay [16], 78.2%; in assay [19], 37.6%.
On to `Cc1ccc2ccc3c(c2n1)OC(N)=C(C#N)C3c1ccc(Br)cc1` (stereo unspecified), for which the viability at 3.125 µg/mL in assay [1] was determined as 64%; in [2] it was 82.3%; in [4], 88%. Further, the viability at 1.56 µg/mL in assay [3] came to 93.9%; in assay [8] it was 77.5%; in assay [20], 100%. For the same compound, the viability at 25 µg/mL in [5] worked out at 29.3%; in [14], 48.8%; in assay [18] it was 62.3%. Also, the results for the viability at 12.5 µg/mL in assay [6], in assay [7] and in assay [12] were 39.6%, 58.2% and 71.8%, respectively. Moreover, the IC50 in assay [9] came to 38.9 µg/mL (≈ 99.2 µM); in assay [10] (setting [22]), 5.5 µg/mL (≈ 14 µM); in assay [17] it was 22.8 µg/mL (≈ 58.1 µM). Further, the viability at 50 µg/mL in assay [11] was 36.6%; in assay [13], 22%; in [21] it was 41.2%. Also, the viability at 6.25 µg/mL was found to be 66.6% in assay [15], 75.2% in assay [16] and 44.9% in assay [19].
For `N#CC1=C(/N=C/c2ccccc2)Oc2c(ccc3cccnc23)C1c1ccc(Cl)cc1` (stereo unspecified), the viability at 3.125 µg/mL was found to be 48.9% in assay [1], 48.3% in [2] and 30.2% in assay [4]. The results for the viability at 1.56 µg/mL in [3], in assay [8] and in assay [20] were 55%, 56.1% and 38.5%, respectively. The values for the viability at 25 µg/mL in assay [5], in assay [14] and in assay [18] were 31.4%, 11.6% and 33.3%, respectively. Besides, the viability at 12.5 µg/mL came to 37.9% in assay [6], 14.8% in [7] and 37.2% in [12]. Moreover, the IC50 in assay [9] was 2.8 µg/mL (≈ 6.64 µM); in assay [10] (setting [22]), 2.8 µg/mL (≈ 6.64 µM); in assay [17], 0.6 µg/mL (≈ 1.42 µM). For the same compound, the viability at 50 µg/mL in assay [11] turned out to be 9.13%; in assay [13], 18.6%; in assay [21], 26.5%. Also, the viability at 6.25 µg/mL in [15] was found to be 19.4%; in assay [16] it was 40.8%; in assay [19], 42.5%.
Consider `CC(=O)NC1=C(C#N)C(c2ccc(Cl)cc2)c2ccc3ccc(C)nc3c2O1` (stereo unspecified), for which the values for the viability at 3.125 µg/mL in assay [1], in assay [2] and in assay [4] were 89.7%, 86.5% and 85.2%, respectively. The viability at 1.56 µg/mL in assay [3] was 96.3%; in [8] it was 100%; in [20], 96.4%. The viability at 25 µg/mL stood at 35.9% in assay [5], 42.5% in [14] and 54% in assay [18]. In addition, the viability at 12.5 µg/mL worked out at 60.2% in assay [6], 53.3% in [7] and 68.7% in assay [12]. The half-maximal inhibitory concentration (IC50) in assay [9] was determined as 38.6 µg/mL (≈ 99 µM); in [10] (setting [22]), 17.8 µg/mL (≈ 45.7 µM); in assay [17], 14.6 µg/mL (≈ 37.5 µM). In addition, the viability at 50 µg/mL in assay [11] came to 22%; in assay [13], 23.8%; in assay [21], 46.2%. Moreover, the figures for the viability at 6.25 µg/mL in assay [15], in [16] and in assay [19] were 77.5%, 76.8% and 78.6%, respectively.

Source of the values: ChEMBL document CHEMBL3045319, “Synthesis, antitumor activity, and structureactivity relationship of some 4H-pyrano[3,2-h]quinoline and 7H-pyrimido[4,5:6,5]pyrano[3,2-h]quinoline derivatives” (Med Chem Res, 2013).
